Values after ≈ are worked out from the molar mass of the structure shown. Values joined by “and” are separate entries in the source; they are usually repeats but may differ in a detail not shown here. Equal entries are not always repeated.
Tests used:
[1] = Stability of Compound 1 on sterilization (steam, gamma irradiation); type: physicochemical
Protocol: The stability of Compound 1 when sterilized by steam (autoclaving) was assessed. […] Gamma irradiation was then assessed as an alternative sterilization technique. Samples of Compound 1 were irradiated with 10-20 kGy or 20-30 kGy of gamma irradiation.

[2] = Solubility of Compound 1 in aqueous buffers; type: physicochemical
From the text: 3-((3-(4-(2-(isobutylsulfonyl)phenoxy)-3-(trifluoromethyl)phenyl)-1,2,4-oxadiazol-5-yl)methyl)-5,5-dimethyl-1-(2-morpholinoethyl)imidazolidine-2,4-dione (“Compound 1”) is an LXR agonist having biological activity that makes the compound useful for treating ocular diseases such as MGD (see, e.g., Example 3). However, its physical properties make formulating Compound 1 for therapeutic use (e.g., in human subjects) difficult. Compound 1 is poorly water soluble, making it difficult to formulate compositions of Compound 1 with desired concentrations of Compound 1 for therapeutic use. […] Moreover, Compound 1 has a melting temperature of only 118° C., which makes heat sterilization of Compound 1 difficult. In spite of these challenges, formulations of Compound 1 which can be used, for example, in the treatment of ocular diseases and disorders such as dry eye disease and MGD, have been developed.

rat meibum = assay: In vivo measurement of lowered meibum melting temperature; parameters: species or system Sprague Dawley rats; conditions: rats
Protocol: The lowering of rat meibum melting temperature by Compound 1 was measured in naive Sprague Dawley rats. The test animals were administered either vehicle, or a suspension of 1% of Compound 1, as eye drops twice a day for fourteen days. The rat meibum was collected after administration of the compounds and analyzed by differential scanning calorimetry to measure the melting point. The lowering of meibum melting point in rats administered Compound 1 was compared to the vehicle.
Melting properties of meibum were obtained using differential scanning calorimetry thermograms, recorded on a TA Discovery Q5000 (ThermoAnalytical). Samples were sealed in standard 40 μl aluminum pans and subjected to a heat-cool-heat cycle with melting temperatures being recorded on the second heating ramp. The samples were first heated to 150° C. at 30K/min then cooled −30° C. at 30K/min. Next, the sample was heated to 75° C. with an underlying heating rate of 2K/min, a period of modulation of 60 seconds and a temperature amplitude of modulation of 1° C. Dry N2 gas, at a flow rate of 50 mL/min was used to purge the DSC equipment during the measurement. Onset of melting and peak temperatures were recorded with peak temperature quoted as the melting point.
Results from the assay are shown Table 3 and in FIG. 4. Results were analyzed using an unpaired t test with Welch's correction.

[3] = Solubility of Compound 1 in different excipients; type: physicochemical
Protocol: The solubility of Compound 1 in different excipients was assessed.

[4] = Wet ball milling: particle size and soluble fraction; type: physicochemical; conditions: aqueous with cosolvent or surfactant or cyclodextrin, thermodynamic from solid
Protocol: The effect of wet ball milling on Compound 1 particles size and solubility in Kolliphor® EL, Kolliphor® RH40, and tyloxopol s was assessed. […] Kolliphor® RH 40 appeared to be best wetting agent, with Kolliphor® EL also performing well.

[5] = Stability of Compound 1 in different excipients, 3 months; type: physicochemical; conditions: for HPLC (% Remaining): initial purity 99.19%
Protocol: The stability of Compound 1 in different excipients was assessed.

[6] = 0.5% Kolliphor ® EL/0.5% Carbopol ® 974P, 5° C.
[7] = 0.5% Kolliphor ® EL/0.5% Carbopol ® 974P, 25° C.
[8] = 0.5% Kolliphor ® EL/0.5% Carbopol ® 974P, 40° C.
[9] = 0.5% Kolliphor ® EL/0.5% HEC, 5° C.
[10] = 0.5% Kolliphor ® EL/0.5% HEC, 25° C.
[11] = 0.5% Kolliphor ® EL/0.5% HEC, 40° C.
[12] = 0.5% Kolliphor ® RH40/0.5% Carbopol ® 974P, 5° C.
[13] = 0.5% Kolliphor ® RH40/0.5% Carbopol ® 974P, 25° C.
[14] = 0.5% Kolliphor ® RH40/0.5% Carbopol ® 974P, 40° C.
[15] = 0.5% Kolliphor ® RH40/0.5% HEC, 5° C.
[16] = 0.5% Kolliphor ® RH40/0.5% HEC, 25° C.
[17] = 0.5% Kolliphor ® RH40/0.5% HEC, 40° C.

HPLC Assay (% Remaining) Average ([1]; 10-20 kGy, samples 7-9): 98.23 ± 0.01%
HPLC Assay (% Remaining) Average ([1]; 20-30 kGy, samples 10-12): 98.14 ± 0.03%
degradation of Compound 1 by HPLC ([1]; gamma irradiated, 10-20 kGy or 20-30 kGy): less than 0.5%
Appearance ([1]; gamma irradiation 10-20 kGy): White powder
HPLC Assay (% Remaining) ([1]; gamma irradiation 10-20 kGy): 98.23% and 98.24% and 98.22%
XRPD (2-Theta) ([1]; gamma irradiation 10-20 kGy): Form A
Appearance ([1]; gamma irradiation 20-30 kGy): White powder
HPLC Assay (% Remaining) ([1]; gamma irradiation 20-30 kGy): 98.17% and 98.13% and 98.11%
XRPD (2-Theta) ([1]; gamma irradiation 20-30 kGy): Form A
Appearance ([1]; non-irradiated control): White powder
XRPD (2-Theta) ([1]; non-irradiated control): Form A
HPLC Assay (% Remaining) Average ([1]; non-irradiated control, samples 1-6): 98.48 ± 0.03%
degradation on steam sterilization ([1]; steam (autoclaving), data not shown): Significant degradation
solubility ([2]; 10 mM acetate buffer, aqueous buffer, 10 mM acetate, pH 4, read-out: solubility): 25 µg/mL (≈ 36.8 µM)
solubility ([2]; 10 mM acetate buffer, aqueous buffer, 10 mM acetate, pH 5, read-out: solubility): 1 µg/mL (≈ 1.47 µM)
solubility ([2]; 10 mM phosphate buffer at pH 7): limit of quantification
Physical form ([3]; 0.5% Tween ® 80 pH 7): No change, Form A
Physical form ([3]; 0.5% Tyloxapol pH 7): No change, Form A
Physical form ([3]; 5% HP-β-CD pH 5): No change, Form A
Physical form ([3]; 5% HP-β-CD pH 6): No change, Form A
Physical form ([3]; 5% HP-β-CD pH 7): No change, Form A
Physical form ([3]; 5% HP-γ-CD pH 7): No change, Form A
Physical form ([3]; 5% Kolliphor ® EL pH 5): No change, Form A
Physical form ([3]; 5% Kolliphor ® EL pH 6): No change, Form A
Physical form ([3]; 5% Kolliphor ® EL pH 7): No change, Form A
Physical form ([3]; 5% PEG400 pH 7): No change, Form A
Physical form ([3]; 5% PVP pH 7): No change, Form A
Compound 1 solubility ([3]; 5% Polyvinylpyrrolidone (PVP) pH 7, measured pH 6.97): <LOQ
Physical form ([3]; 10% transcutol pH 7): No change, Form A
Compound 1 solubility ([3]; 10% transcutol pH 7, measured pH 6.99): <LOQ
solubility ([3]; aqueous with cosolvent or surfactant or cyclodextrin, thermodynamic from solid, 0.5% Tween ® 80 pH 7, measured pH 7.1): 78 µg/mL (≈ 115 µM)
solubility ([3]; aqueous with cosolvent or surfactant or cyclodextrin, thermodynamic from solid, 0.5% Tyloxapol pH 7): 34 µg/mL (≈ 50 µM)
solubility ([3]; aqueous with cosolvent or surfactant or cyclodextrin, thermodynamic from solid, 5% HP-β-CD pH 5, measured pH 5.28): 180 µg/mL (≈ 265 µM)
solubility ([3]; aqueous with cosolvent or surfactant or cyclodextrin, thermodynamic from solid, 5% HP-β-CD pH 6, measured pH 6.13): 70 µg/mL (≈ 103 µM)
solubility ([3]; aqueous with cosolvent or surfactant or cyclodextrin, thermodynamic from solid, 5% HP-β-CD pH 7, measured pH 7.03): 50 µg/mL (≈ 73.6 µM)
solubility ([3]; aqueous with cosolvent or surfactant or cyclodextrin, thermodynamic from solid, 5% HP-γ-CD pH 7, measured pH 6.9): 225 µg/mL (≈ 331 µM)
solubility ([3]; aqueous with cosolvent or surfactant or cyclodextrin, 5% Kolliphor ® EL pH 5, measured pH 5.34): 1010 µg/mL (≈ 1490 µM)
solubility ([3]; aqueous with cosolvent or surfactant or cyclodextrin, 5% Kolliphor ® EL pH 6, measured pH 6.16): 740 µg/mL (≈ 1090 µM)
solubility ([3]; aqueous with cosolvent or surfactant or cyclodextrin, 5% Kolliphor ® EL pH 7, measured pH 7.01): 690 µg/mL (≈ 1020 µM)
solubility ([3]; aqueous with cosolvent or surfactant or cyclodextrin, 5% Kolliphor ® RH40, measured pH 6.91): 443 µg/mL (≈ 652 µM)
solubility ([3]; pH 7.1, aqueous with cosolvent or surfactant or cyclodextrin, 5% PEG400 pH 7, measured pH 7.10): 3 µg/mL (≈ 4.41 µM)
solubility at 24 h ([4]; 0.25% Tyloxapol @ 24 hr, 3 mm beads): 15 µg/mL (≈ 22.1 µM)
solubility at 24 h ([4]; 0.5% Tyloxapol @ 24 hr, 3 mm beads): 76 µg/mL (≈ 112 µM)
solubility at 24 h ([4]; 1% Kolliphor ® EL @ 24 hr, 3 mm beads): 270 µg/mL (≈ 397 µM)
solubility at 24 h ([4]; 1% Kolliphor ® RH-40 @ 24 hr, 3 mm beads): 344 µg/mL (≈ 506 µM)
solubility at 24 h ([4]; 2% Kolliphor ® EL @ 24 hr, 3 mm beads): 528 µg/mL (≈ 777 µM)
solubility at 24 h ([4]; 2% Kolliphor ® RH40, @ 24 hr, 1 mm beads): 650 µg/mL (≈ 956 µM)
solubility at 24 h ([4]; 2% Kolliphor ® RH-40 @ 24 hr, 3 mm beads): 669 µg/mL (≈ 984 µM)
solubility at 24 h ([4]; 4% Kolliphor ® RH40 @ 24 hr, 1 mm beads): 1200 µg/mL (≈ 1760 µM)
XRPD (2-Theta) ([5]; 0.5% Carbopol ® 974P, 5° C.): Form
HPLC (% Remaining) ([5]; 0.5% Carbopol ® 974P, 5° C.): 99.19%
XRPD (2-Theta) ([5]; 0.5% Carbopol ® 974P, 25° C.): Form
HPLC (% Remaining) ([5]; 0.5% Carbopol ® 974P, 25° C.): 99.16%
XRPD (2-Theta) ([5]; 0.5% Carbopol ® 974P, 40° C.): Form
HPLC (% Remaining) ([5]; 0.5% Carbopol ® 974P, 40° C.): 99.14%
XRPD (2-Theta) ([5]; 0.5% HEC, 5° C.): Form
HPLC (% Remaining) ([5]; 0.5% HEC, 5° C.): 99.18%
XRPD (2-Theta) ([5]; 0.5% HEC, 25° C.): Form
HPLC (% Remaining) ([5]; 0.5% HEC, 25° C.): 99.20%
XRPD (2-Theta) ([5]; 0.5% HEC, 40° C.): Form
HPLC (% Remaining) ([5]; 0.5% HEC, 40° C.): 99.17%
XRPD (2-Theta) ([5]; 0.5% Kolliphor ® EL, 5° C.): Form
HPLC (% Remaining) ([5]; 0.5% Kolliphor ® EL, 5° C.): 99.18%
XRPD (2-Theta) ([5]; 0.5% Kolliphor ® EL, 25° C.): Form
HPLC (% Remaining) ([5]; 0.5% Kolliphor ® EL, 25° C.): 99.18%
XRPD (2-Theta) ([5]; 0.5% Kolliphor ® EL, 40° C.): Form
HPLC (% Remaining) ([5]; 0.5% Kolliphor ® EL, 40° C.): 99.00%
XRPD (2-Theta) [5, 6]: Form
HPLC (% Remaining) [5, 6]: 99.18%
XRPD (2-Theta) [5, 7]: Form
HPLC (% Remaining) [5, 7]: 99.02%
XRPD (2-Theta) [5, 8]: Form
HPLC (% Remaining) [5, 8]: 97.89%
XRPD (2-Theta) [5, 9]: Form
HPLC (% Remaining) [5, 9]: 99.19%
XRPD (2-Theta) [5, 10]: Form
HPLC (% Remaining) [5, 10]: 99.02%
XRPD (2-Theta) [5, 11]: Form
HPLC (% Remaining) [5, 11]: 98.94%
XRPD (2-Theta) ([5]; 0.5% Kolliphor ® RH40, 5° C.): Form
HPLC (% Remaining) ([5]; 0.5% Kolliphor ® RH40, 5° C.): 99.18%
XRPD (2-Theta) ([5]; 0.5% Kolliphor ® RH40, 25° C.): Form
HPLC (% Remaining) ([5]; 0.5% Kolliphor ® RH40, 25° C.): 99.18%
XRPD (2-Theta) ([5]; 0.5% Kolliphor ® RH40, 40° C.): Form
HPLC (% Remaining) ([5]; 0.5% Kolliphor ® RH40, 40° C.): 99.17%
XRPD (2-Theta) [5, 12]: Form
HPLC (% Remaining) [5, 12]: 99.18%
XRPD (2-Theta) [5, 13]: Form
HPLC (% Remaining) [5, 13]: 99.17%
XRPD (2-Theta) [5, 14]: Form
HPLC (% Remaining) [5, 14]: 98.87%
XRPD (2-Theta) [5, 15]: Form
HPLC (% Remaining) [5, 15]: 99.19%
XRPD (2-Theta) [5, 16]: Form
HPLC (% Remaining) [5, 16]: 99.18%
XRPD (2-Theta) [5, 17]: Form
HPLC (% Remaining) [5, 17]: 99.18%
SMILES: CC(C)CS(=O)(=O)c1ccccc1Oc1ccc(-c2noc(CN3C(=O)N(CCN4CCOCC4)C(C)(C)C3=O)n2)cc1C(F)(F)F [Compound 1, 3-((3-(4-(2-(isobutylsulfonyl)phenoxy)-3-(trifluoromethyl)phenyl)-1,2,4-oxadiazol-5-yl)methyl)-5,5-dimethyl-1-(2-morpholinoethyl)imidazolidine-2,4-dione]
HPLC Assay (% Remaining) ([1]; non-irradiated control): 98.51% and 98.48% and 98.44% and 98.46% and 98.49% and 98.50%
Mean ± SEM meibum melting temperature (rat meibum; 1% suspension eye drops twice a day for fourteen days, DSC peak temperature, in °C): 28.08 ± 0.2945
Change of Tm (rat meibum; versus vehicle, 1% suspension twice a day, fourteen days, P value <0.0001): −2.181 ± 0.3731
